Laboratory results as given in patent US20240182445A1 (ONO PHARMACEUTICAL CO., LTD., priority 2019, published 2024).

Biological target: T1, human TREK-1 (Homo sapiens, UniProt O95069)
T1 construct: expressed in transfected cells
T1 sequence (O95069 1-426): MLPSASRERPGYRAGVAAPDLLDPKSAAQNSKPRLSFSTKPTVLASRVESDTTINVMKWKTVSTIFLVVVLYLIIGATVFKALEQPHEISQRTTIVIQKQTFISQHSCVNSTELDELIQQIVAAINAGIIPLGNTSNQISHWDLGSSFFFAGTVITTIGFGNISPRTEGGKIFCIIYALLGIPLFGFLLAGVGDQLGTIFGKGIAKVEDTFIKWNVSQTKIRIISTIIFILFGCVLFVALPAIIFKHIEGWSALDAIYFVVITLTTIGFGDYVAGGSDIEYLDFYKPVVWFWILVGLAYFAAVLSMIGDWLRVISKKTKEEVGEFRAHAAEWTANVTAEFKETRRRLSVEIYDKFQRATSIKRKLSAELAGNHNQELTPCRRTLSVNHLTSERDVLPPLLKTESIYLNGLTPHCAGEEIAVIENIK
Assay: TREK-1 Thallium (Tl+) flux assay, Method 1
Type: cell-based
Settings: TREK-1 Thallium (Tl+) flux assay, Method 1
Procedure, shortened: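 Readout: Thallos fluorescence ratio, taken 25 s post-thallium relative to the pre-thallium baseline average, then converted to % inhibition. Cells were CHO-K1 stably expressing human TREK-1, dye-loaded and exposed to test compound (vehicle 0.3% DMSO) for 10 min prior to thallium stimulation.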

| Structure (SMILES) | IC50 [nM] |
| --- | --- |
| Cc1cc(OCc2ccccc2)ccc1NC(=O)c1c(Cl)cnn1C1CCN(C(=O)CC(C)C)CC1 [Compound 401, N-(4-(benzyloxy)-2-methylphenyl)-4-chloro-1-(1-(3-methylbutanoyl)piperidin-4-yl)-1H-pyrazole-5-carboxamide] | 1780 |
| CC(=O)N1CCC(n2ncc(Cl)c2C(=O)Nc2ncc(-c3ccc(OC(F)(F)F)cc3)cc2C)CC1 [Compound 414, 1-(1-acetylpiperidin-4-yl)-4-chloro-N-(3-methyl-5-(4-(trifluoromethoxy)phenyl)pyridin-2-yl)-1H-pyrazole-5-carboxamide] | 3620 |

Same assay, conditions: TREK-1 Thallium (Tl+) flux assay; no *^12 (Method 2) mark on these rows

| Structure (SMILES) | IC50 [nM] |
| --- | --- |
| Cc1cc(C#Cc2ccccc2)cnc1NC(=O)c1c(Cl)cnn1CC1CCN(C(=O)C(C)C)CC1(F)F (stereo not shown) [Compound 231, 4-chloro-1-((3,3-difluoro-1-isobutyrylpiperidin-4-yl)methyl)-N-(3-methyl-5-(phenylethynyl)pyridin-2-yl)-1H-pyrazole-5-carboxamide] | 350 |
| Cc1cc(C#Cc2ccc(F)cc2)cnc1NC(=O)c1c(Cl)cnn1[C@H]1C[C@H](NC(=O)C2CC2)C1 [Compound 198, 4-chloro-1-(trans-3-(cyclopropanecarboxamido)cyclobutyl)-N-(5-((4-fluorophenyl)ethynyl)-3-methylpyridin-2-yl)-1H-pyrazole-5-carboxamide] | 300 |
| CC(=O)N1CC[C@@H](n2ncc(Cl)c2C(=O)Nc2ncc(C#Cc3ccccc3)cc2C)C[C@@H]1C (single isomer, unassigned) [Compound 261, 1-[(2S,4R)-1-acetyl-2-methylpiperidin-4-yl]-4-chloro-N-[3-methyl-5-(phenylethynyl)pyridin-2-yl]-1H-pyrazole-5-carboxamide or 1-[(2R,4S)-1-acetyl-2-methylpiperidin-4-yl]-4-chloro-N-[3-methyl-5-(phenylethynyl)pyridin-2-yl]-1H-pyrazole-5-carboxamide] | 430 |
| O=C(Nc1ncc(C#Cc2ccccc2)cc1F)c1c(Cl)cnn1-c1ccc2c(c1)OCO2 [Compound 227, 1-(benzo[d][1,3]dioxol-5-yl)-4-chloro-N-(3-fluoro-5-(phenylethynyl)pyridin-2-yl)-1H-pyrazole-5-carboxamide] | 350 |
| Cc1cc(C#Cc2ccccc2)cnc1NC(=O)c1c(Cl)cnn1[C@H]1CCN(C(=O)OC(C)(C)C)C1 [Compound 298, tert-butyl (S)-3-(4-chloro-5-((3-methyl-5-(phenylethynyl)pyridin-2-yl)carbamoyl)-1H-pyrazol-1-yl)pyrrolidine-1-carboxylate] | 540 |
| Cc1cc(OCc2ccccc2)ccc1NC(=O)c1c(Cl)cnn1[C@H]1CC[C@@H](NC(=O)C2COCCO2)CC1 (stereo partly drawn) [Compound 380, 1-(cis-4-(1,4-dioxane-2-carboxamido)cyclohexyl)-N-(4-(benzyloxy)-2-methylphenyl)-4-chloro-1H-pyrazole-5-carboxamide] | 380 |
| CC(=O)N1CC[C@@H](n2ncc(Cl)c2C(=O)Nc2ncc(C#Cc3ccccc3)cc2C)C1 [Compound 202, (R)-1-(1-acetylpyrrolidin-3-yl)-4-chloro-N-(3-methyl-5-(phenylethynyl)pyridin-2-yl)-1H-pyrazole-5-carboxamide] | 310 |
| Cc1cc(C#Cc2ccc(F)cc2)cnc1NC(=O)c1c(Cl)cnn1CC1CCCN(C(=O)C2CC2)C1 (stereo not shown) [Compound 271, 4-chloro-1-((1-(cyclopropanecarbonyl)piperidin-3-yl)methyl)-N-(5-((4-fluorophenyl)ethynyl)-3-methylpyridin-2-yl)-1H-pyrazole-5-carboxamide] | 460 |
| CC(C)(C)OC(=O)N1CC[C@H](n2ncc(Cl)c2C(=O)Nc2ncc(C#Cc3ccccc3)cc2F)C1 [Compound 315, tert-butyl (S)-3-(4-chloro-5-((3-fluoro-5-(phenylethynyl)pyridin-2-yl)carbamoyl)-1H-pyrazol-1-yl)pyrrolidine-1-carboxylate] | 600 |
| Cc1cc(C#Cc2ccccc2)cnc1NC(=O)c1c(Cl)cnn1[C@@H]1CCOC1 [Compound 224, (R)-4-chloro-N-(3-methyl-5-(phenylethynyl)pyridin-2-yl)-1-(tetrahydrofuran-3-yl)-1H-pyrazole-5-carboxamide] | 750 |
| Cc1cc(C#Cc2ccccc2)cnc1NC(=O)c1c(Cl)ccn1CC1CCOCC1 [Compound 375, 3-chloro-N-(3-methyl-5-(phenylethynyl)pyridin-2-yl)-1-((tetrahydro-2H-pyran-4-yl)methyl)-1H-pyrrole-2-carboxamide] | 1150 |
| Cc1cc(C#Cc2ccccc2)cnc1NC(=O)c1c(Cl)cnn1CC1COCC1C (stereo not shown) [Compound 281, 4-chloro-N-(3-methyl-5-(phenylethynyl)pyridin-2-yl)-1-((4-methyltetrahydrofuran-3-yl)methyl)-1H-pyrazole-5-carboxamide] | 490 |
| Cc1cc(C#Cc2ccccc2)cnc1NC(=O)c1c(Cl)cnn1C1CCCOC1 (stereo not shown) [Compound 327, 4-chloro-N-(3-methyl-5-(phenylethynyl)pyridin-2-yl)-1-(tetrahydro-2H-pyran-3-yl)-1H-pyrazole-5-carboxamide] | 650 |
| CC(=O)N1C[C@H]2C[C@H](n3ncc(Cl)c3C(=O)Nc3ncc(C#Cc4ccccc4F)cc3C)C[C@H]2C1 [Compound 359, 1-[(3aR,5s,6aS)-2-acetyloctahydrocyclopenta[c]pyrrol-5-yl]-4-chloro-N-{5-[(2-fluorophenyl)ethynyl]-3-methylpyridin-2-yl}-1H-pyrazole-5-carboxamide] | 900 |

Same assay, conditions: TREK-1 Thallium (Tl+) flux assay; values without footnote *12 are Method 1

| Structure (SMILES) | IC50 [nM] |
| --- | --- |
| CC(=O)N1CCC(n2ncc(Cl)c2C(=O)Nc2ncc(C#Cc3ccc(F)cc3)cc2C)CC1C (stereo not shown) [Compound 62, 1-(1-acetyl-2-methylpiperidin-4-yl)-4-chloro-N-(5-((4-fluorophenyl)ethynyl)-3-methylpyridin-2-yl)-1H-pyrazole-5-carboxamide] | 150 |
| CCNC(=O)N1CCC(n2ncc(Cl)c2C(=O)Nc2ncc(C#Cc3cccc(F)c3)cc2C)CC1 [Compound 75, 4-(4-chloro-5-((5-((3-fluorophenyl)ethynyl)-3-methylpyridin-2-yl)carbamoyl)-1H-pyrazol-1-yl)-N-ethylpiperidine-1-carboxamide] | 160 |
| CCC(=O)N1CC(n2ncc(Cl)c2C(=O)Nc2ncc(C#Cc3ccccc3)cc2C)C1 [Compound 137, 4-chloro-N-(3-methyl-5-(phenylethynyl)pyridin-2-yl)-1-(1-propionylazetidin-3-yl)-1H-pyrazole-5-carboxamide] | 220 |
| N#CC1(Cn2ncc(Cl)c2C(=O)Nc2c(F)cc(C#Cc3ccccc3)cc2F)CC1 [Compound 168, 4-chloro-1-((1-cyanocyclopropyl)methyl)-N-(2,6-difluoro-4-(phenylethynyl)phenyl)-1H-pyrazole-5-carboxamide] | 270 |
| CC(=O)N1CCC(n2ncc(Cl)c2C(=O)Nc2ncc(C#Cc3cccc(F)c3)cc2C)CC1 [Compound 71, 1-(1-acetylpiperidin-4-yl)-4-chloro-N-(5-((3-fluorophenyl)ethynyl)-3-methylpyridin-2-yl)-1H-pyrazole-5-carboxamide] | 160 |
| CC(=O)N1CCC(n2ncc(Br)c2C(=O)Nc2ncc(C#Cc3ccccc3)cc2C)CC1 [Compound 17, 1-(1-acetylpiperidin-4-yl)-4-bromo-N-(3-methyl-5-(phenylethynyl)pyridin-2-yl)-1H-pyrazole-5-carboxamide] | 40 |
| CC(=O)N1CCC(CCn2ncc(Cl)c2C(=O)Nc2ncc(C#Cc3ccccc3)cc2F)CC1 [Compound 102, 1-(2-(1-acetylpiperidin-4-yl)ethyl)-4-chloro-N-(3-fluoro-5-(phenylethynyl)pyridin-2-yl)-1H-pyrazole-5-carboxamide] | 190 |
| CC(C)(C)OC(=O)N1CCC(C#N)(Cn2ncc(Cl)c2C(=O)Nc2ncc(C#Cc3ccccc3)cc2F)CC1 [Compound 83, tert-butyl 4-((4-chloro-5-((3-fluoro-5-(phenylethynyl)pyridin-2-yl)carbamoyl)-1H-pyrazol-1-yl)methyl)-4-cyanopiperidine-1-carboxylate] | 160 |
| Cc1cc(C#Cc2ccccc2)cnc1NC(=O)c1c(Cl)cnn1[C@H]1C[C@H](NC(=O)C(C)C)C1 [Compound 183, 4-chloro-1-(trans-3-isobutyramidocyclobutyl)-N-(3-methyl-5-(phenylethynyl)pyridin-2-yl)-1H-pyrazole-5-carboxamide] | 280 |
| CC(=O)N[C@H]1C[C@@H](n2ncc(Cl)c2C(=O)Nc2ncc(C#Cc3ccccc3)cc2C)C1 [Compound 64, 1-(cis-3-acetamidocyclobutyl)-4-chloro-N-(3-methyl-5-(phenylethynyl)pyridin-2-yl)-1H-pyrazole-5-carboxamide] | 150 |
| CC(=O)N1CCC(Cn2ncc(Cl)c2C(=O)Nc2ncc(C#Cc3ccccc3)cc2F)C1 (stereo not shown) [Compound 44, 1-((1-acetylpyrrolidin-3-yl)methyl)-4-chloro-N-(3-fluoro-5-(phenylethynyl)pyridin-2-yl)-1H-pyrazole-5-carboxamide] | 130 |
| Cc1cc(C#Cc2cccc(F)c2)cnc1NC(=O)c1c(Cl)cnn1CC1CCN(C(=O)C2CC2)CC1 [Compound 174, 4-chloro-1-((1-(cyclopropanecarbonyl)piperidin-4-yl)methyl)-N-(5-((3-fluorophenyl)ethynyl)-3-methylpyridin-2-yl)-1H-pyrazole-5-carboxamide] | 270 |
